Laboratory results: patent US20160361340A1, “TREATMENT OF CARDIAC DISEASES WITH MODULATORS OF THE HIPPO PATHWAY” (INSTITUT PASTEUR, priority 2014, published 2016)

Experiments:
Format in all cases: cell-based, rat
Details in all cases: primary cultures of cardiomyocytes
Amotl1 = assay: RT-qPCR control of RNA interference efficiency, Amotl1
Procedure: (§1) cDNAs were reverse transcribed from RNAs extracted in TRIzol from cell cultures and isolated hearts using the Quanti-Tect kit (Qiagen) and Superscript II Reverse Transcriptase (Life Technologies) respectively. Quantitative PCR was carried out on a StepOne System (Life Technologies) using Fast Start SYBR Green Master (Roche). Quantification of gene expression was calculated as R=2^ΔCt(control-target), with Gapdh used as a control. Primers were designed using the NCBI Primer-BLAST software. Primer sequences are listed in Supplementary Table 1.
(§2) Primary cultures of newborn rat cardiomyocytes, performed as previously described^34, were transfected with siRNA at 10 pM using Lipofectamine RNAiMax with silencer-siRNA at 24 h and analysed at 72 h, or 96 h (FIG. 3c). Control (Ambion 4390843), Fat4 (siRNA-1: Ambion s172170, siRNA-2: […], siRNA-3 […]), Amotl1 (siRNA-1: […], siRNA-2: […], siRNA-3: […]), Yap1 (siRNA-1: Ambion s170200, siRNA-2: […], siRNA-3: […]) siRNA were used. Efficiency of the interference was controlled by RT-qPCR. In the figures, Fat4 siRNA is Fat4-siRNA-1, Yap1 siRNA is a pool of siRNA-1 to 3 and Amotl1 siRNA is a pool of siRNA-1 to 3.

Fat4 = assay: RT-qPCR control of RNA interference efficiency, Fat4
Procedure: as §1, §2

Yap1 = assay: RT-qPCR control of RNA interference efficiency, Yap1
Procedure: as §1, §2

Q: “Amotl1 siRNA-2: siRNA against rat Amotl1, GAGUAUCUCAGAGGCCUAUTT (chemistry not given here)” was tested. Which “down-regulation of Amotl1 relative to Gapdh transcripts” value (Amotl1) did it give?
A: The value was “Efficient down-regulation”.

Q: For “Amotl1 siRNA-3: siRNA against rat Amotl1, CAUCACAUGUCCCAGAAUATT (chemistry not given here)”, which “down-regulation of Amotl1 relative to Gapdh transcripts” value (Amotl1) is on record?
A: Its value is “Efficient down-regulation”.

Q: For “Amotl siRNA-1: siRNA against rat Amotl1, AUCUCUACCAUUUGUUGGGTT (chemistry not given here)”, which “down-regulation of Amotl1 relative to Gapdh transcripts” value (Amotl1) is on record?
A: The value was “Efficient down-regulation”.

Q: Which “down-regulation of Fat4 relative to Gapdh transcripts” value (Fat4) does the source give for “Fat4 siRNA-2: siRNA against rat Fat4, CCUGUACCCUGAGUAUUGATT (chemistry not given here)” here?
A: Its value is “Efficient down-regulation”.

Q: Which “down-regulation of Fat4 relative to Gapdh transcripts” value (Fat4) does the source give for “Fat4 siRNA-3: siRNA against rat Fat4, CCGUCCUUGUGUUUAACGUTT (chemistry not given here)” here?
A: Its value is “Efficient down-regulation”.

Q: For “Yap1 siRNA-2: siRNA against rat Yap1, GUCAGAGAUACUUCUUAAATT (chemistry not given here)”, which “down-regulation of Yap1 relative to Gapdh transcripts” value (Yap1) is on record?
A: The value was “Efficient down-regulation”.

Q: “Yap1 siRNA-3: siRNA against rat Yap1, GGAGAAGUUUACUACAUAATT (chemistry not given here)” was tested. Which “down-regulation of Yap1 relative to Gapdh transcripts” value (Yap1) did it give?
A: Its value is “Efficient down-regulation”.
